From patent US9873670B2, “Arylquinoline and analog compounds and use thereof to treat cancer” (UNIVERSITY OF KENTUCKY RESEARCH FOUNDATION, priority 2013, dated 2018)

What was measured:
Par-4 secretion = assay: Par-4 secretion, cells not specified; assay type: cell-based
[1] = system: mouse embryonic fibroblast (MEF) cells; assay: Par-4 secretion from normal mouse fibroblasts (Western blot of conditioned medium); assay type: cell-based; details: for level of Par-4 secretion, structure-activity comparison among analogs: normal mouse fibroblasts, conditions not toxic to the cells
Protocol: In another aspect, the subject technology provides assays for screening test compounds that interfere with vimentin binding to PAR-4 or which cause release of vimentin-bound PAR-4. In a typical assay, cells, such as HEL cells, are seeded onto an appropriate support, such as 60-mm plates containing supplemented growth medium (e.g., supplemented with 0.1% serum) at a desired confluency, such as 40-70% confluency, and treated with the test compound (e.g., 500 nM) or control vehicle. The cells are allowed to grow for a period of time, such as 24 hours, after which the conditioned medium (CM) is concentrated (e.g., concentrated 30× to 100 μl using Millipore tubes (Amicon Ultra centrifugal filters, Ultracel-10K) by 15 min centrifugation at 4500 rpm). The concentrated CM is then subjected to co-immunoprecipitation using detectably labeled PAR-4 and vimentin antibodies in the presence of various concentrations of purified PAR-4 and the precipitated proteins are resolved by SDS-PAGE and analyzed by Western blot analysis. The amount of immunoprecipitated PAR-4-vimentin complex is compared to that of control samples. For example, chemiluminescent signals may be quantified in the BIO-RAD Molecular Imager ChemiDoc XRS+Imaging system using Quantity One software. Induction of Par-4 secretion by the test drug (e.g., 500 nM), as judged by this Western blot analysis procedure, will indicate dissociation of Par-4 from vimentin. […] For such experiments, cells may be treated with the test drug (e.g., 500 nM) or vehicle for an appropriate period of time, such as 24 hours, and then cell lysates are prepared and subjected to immunoprecipitation using an appropriate amount of a Par-4 antibody, vimentin antibody or control IgG antibody by using any standard immunoprecipitation procedure. Following […], the complexes are resolved, preferably by Western blot analysis as described above. If the drug inhibits the binding of Par-4 to vimentin, it will be reflected in the lack of co-immunoprecipitation of Par-4 with the vimentin antibody, and co-immunoprecipitation of vimentin with the Par-4 antibody.
Co-Immunoprecipitation and Western blot analysis: Protein extracted from cell lysates was filtered, pre-cleared with 25 μL (bed volume) of protein G-Sepharose beads and immunoprecipitated with 1 μg of respective antibodies. The eluted proteins were resolved by SDS-PAGE, and subjected to Western blot analysis as described.
To identify Par-4 secretagogues, we synthesized and screened 3-arylquinolines as well as related quinolones and quinothiolones for the secretion of Par-4 protein from normal fibroblasts under conditions that are not toxic to the cells.
We screened representative members of each of these heterocyclic families on a compound-by-compound basis for the secretion of Par-4 protein from normal mouse fibroblasts under conditions that were not toxic to the cells. Initial expectations were that these heterocycles would serve as Nutlin-3a surrogates and inhibit MDM2, but studies reported herein established a completely different mechanism of action, reflecting that the structural dissimilarities between these heterocycles and Nutlin-3a outweighed the similarities that led to their initial selection for screening.

SMILES | melting point | other results
CN(C)c1ccc2cc(-c3ccccc3F)c(=O)[nH]c2c1 [Arylquin 4, 7-(dimethylamino)-3-(2-fluorophenyl)quinolin-2(1H)-one] | 247 to 248 °C | 
CN(C)c1ccc2cc(-c3ccccc3)c(N)nc2c1 [Arylquin 7, N^7,N^7-Dimethyl-3-phenylquinoline-2,7-diamine] | 123 to 125 °C | 
CN(C)c1ccc2cc(-c3ccccc3F)c(SCC(=O)NCCOCCOCCNC(=O)CCCCC3SCC4NC(=O)NC43)nc2c1 (centres unmarked) [Biotinylated Arylquin 9, N-(2-(2-(2-(2-(7-(dimethylamino)-3-(2-fluorophenyl)quinolin-2-ylthio)acetamido)ethoxy)ethoxy)ethyl)-5-(2-oxohexahydro-1H-thieno[3,4-d]imidazol-4-yl)pentanamide] |  | Par-4 secretory properties (Par-4 secretion): retain Par-4 secretory properties
Nc1nc2ccccc2cc1-c1ccccc1F [Arylquin 8, 3-(2-fluorophenyl)quinolin-2-amine] | 152 to 153 °C | level of Par-4 secretion, structure-activity comparison among analogs [1]: highest levels of Par-4 secretion
CN(C)c1ccc2cc(-c3ccccc3F)c(=S)[nH]c2c1 [Arylquin 5, 7-(dimethylamino)-3-(2-fluorophenyl)quinoline-2(1H)-thione] | 251 to 253 °C | 
COc1ccc(C2=N[C@@H](c3ccc(Cl)cc3)[C@@H](c3ccc(Cl)cc3)N2C(=O)N2CCNC(=O)C2)c(OC(C)C)c1 [Nutlin-3a, reference compound] |  | Par-4 secretion ([1]; MEF cells): stimulated Par-4 secretion at micromolar levels
C[C@H]1CCC/C=C/[C@@H]2C[C@H](O)C[C@H]2[C@H](O)/C=C/C(=O)O1 [Brefeldin A, reference compound] |  | effect on basal and Arylquin 1-inducible Par-4 secretion (Par-4 secretion): inhibited basal as well as Arylquin 1-inducible Par-4 secretion
CN(C)c1ccc2cc(-c3cccc(F)c3)c(N)nc2c1 [Arylquin 2, 3-(3-fluorophenyl)-N^7,N^7-dimethylquinoline-2,7-diamine] | 147 to 148 °C | 
CN(C)c1ccc2cc(-c3ccccc3F)cnc2c1 [Arylquin 6, 3-(2-fluorophenyl)-N,N-dimethylquinolin-7-amine] | 142 to 144 °C | level of Par-4 secretion, structure-activity comparison among analogs [1]: highest levels of Par-4 secretion
